# Legend:
# [1] = test system: A549 cells; assay: Quantification of arachidonic acid (AA) release in A549 cells; type: cell-based; settings: for AA release (lipid specificity): 1 μM lipid, 2 hours
# Experimental: (§1) Cell Culture: A549 lung adenocarcinoma cells (epithelial-derived) were grown in low glucose DMEM (Invitrogen) supplemented with L-glutamine, 10% (v/v) fetal bovine serum (Invitrogen), 200 U/ml of penicillin G sodium, and 200 μg/ml of streptomycin sulfate. Cells were maintained under 80% confluency and standard incubator conditions (humidified atmosphere, 95% air, 5% CO2, 370 C). For treatment, cells were incubated for 2 hours in low glucose DMEM (Invitrogen) supplemented with L-glutamine, 2% (v/v) fetal bovine serum (Invitrogen), 200 U/ml of penicillin G sodium, and 200 μg/ml of streptomycin sulfate prior to the addition of agonist.
# (§2) Quantification of arachidonic acid (AA) release: A549 cells (5×10^4) were labeled overnight with 5 μCi/mL [^3H]-AA (5 nM) (NEN). Cells were washed and incubated in DMEM supplemented with 2% fetal bovine serum for 2 hours. Following treatment, media was transferred to 1.5 mL polypropylene tubes, centrifuged at 10,000×g, and ^3H-AA cpm determined by scintillation counting. Results were controlled for equivalent number of cells quantified by MTT assay as described (Chalfant, C. E., Rathman, K., Pinkerman, R. L., Wood, R. E., Obeid, L. M., Ogretmen, B., and Hannun, Y. A. (2002) J. Biol. Chem. 277, 12587-12595) and by verification of total AA labeling by scintillation counting. For the experiments in FIG. 4, purified SMase D was obtained from Dr. Alfred H. Merrill, Jr., and SMase C (purified from Bacillus cereus) was obtained commercially from Sigma.
# RNAi design and transfections: Knock-downs of ceramide kinase were performed essentially as described using sequence specific siRNA reagents (http:www.mpibpc.gwdg.de/abteilungen/100/105/sirna.html) (Lassus, P., Opitz-Araya, X., and Lazebnik, Y. (2002) Science 297, 1352-1354) using human ceramide kinase RNAi starting 142 nucleotides from start codon ([…]dTd (SEQ ID NO: 3) and […]dTd (SEQ ID NO:4)). All sequences were evaluated against the database using the NIH blast program to test for specificity (Xeragon, A Qiagen Company). A549 cells (3×10^4) were transfected with the 21-nucleotide duplexes using OligofectAMINE (Invitrogen) as recommended by the manufacturer. Following the 4 hour transfection, cells were treated and assayed for AA release or PGE2 synthesis at 26 hours post-transfection.
# [2] = test system: C-1-P levels; assay: Ceramide-1-phosphate levels by pulse-labeling with D-e-C6 NBD-ceramide in A549 cells; type: cell-based
# Experimental: (§3) FIGS. 5A-5C. IL-1β and calcium ionophore increase ceramide-1-phosphate production and ceramide kinase activity. FIGS. 5A and 5B. The effect of IL-1 and A23187 on C-1-P levels and AA liberation. A549 cells (2×10^5) were labeled overnight with 10 μCi/mL [^3H]-arachidonic acid (10 nM), washed, and then treated with either 2.5 ng/mL of IL-1β (FIG. 5A) or 1 μg/mL of A23187 (FIG. 5B) for the indicated times. Two hours prior to Bligh-Dyer extraction, cells were chased with 20 μM of D-e-C6 NBD-ceramide (Matreya). At the appropriate times, media was taken for AA analysis, and lipids from the cells were extracted by the Bligh-Dyer method followed by analysis of NBD-C-1-P formation. Data are presented as % control of C-1-P levels (J) and AA release (B). Data are representative of three separate determinations on 2 separate occasions. FIG. 5C. IL-1β and calcium ionophore increase ceramide kinase activity. A549 cells (5×10^5) were treated with either 2.5 ng/mL of IL-1β for 3.5 hours or 1 μg/mL of A23187 for 5 minutes. Cells were then washed, lysed in assay buffer, and assayed for ceramide kinase activity. Data is presented as % control of ceramide kinase activity (Arbitrary densitometry units of fluorescent NBD-C-1-P produced/min/mg of total cellular protein). Data are representative of three separate determinations on 2 separate occasions.
# Quantification of ceramide-1-phosphate levels by pulse-labeling with D-e-C6 NBD-ceramide: Two hours prior to Bligh-Dyer extraction, cells were chased with 20 μM of D-e-C6 NBD-ceramide (Matreya). At the appropriate times, lipids were extracted by the Bligh-Dyer method, analyzed for NBD-C-1-P formation using TLC analysis, and results normalized to total lipid phosphate as described (Perry, D. K., Bielawska, A., and Hannun, Y. A. (2000) Methods Enzymol. 312, 22-31).
# [3] = test system: ceramide kinase; assay: Ceramide kinase assay on lysates of treated or transfected A549 cells; type: cell-based, human
# Experimental: as §3
# FIGS. 6A-6B. Ceramide kinase RNAi downregulates endogenous ceramide kinase activity and mRNA levels. FIG. 6A. The effect of ceramide kinase RNAi on endogenous ceramide kinase activity. […] Following the same procedure as outlined in FIG. 6A, total RNA was extracted and analyzed via logarithmic reverse-transcriptase polymerase chain reaction for human ceramide kinase and 18s ribosomal RNA. […]
# Ceramide Kinase Assay: Ceramide kinase activity was measured as described previously with slight modifications (Bajjalieh, S., and Batchelor, R. (2001) Methods Enzymol. 311, 207-215). […] Following Bligh-Dyer extraction, lipids were separated by thin layer chromatography, and NBD-C-1-P was visualized/quantified by fluorescent phosphorimaging.
# [4] = test system: A549 cells; assay: Quantification of thromboxane B2 synthesis in A549 cells (EIA); type: cell-based; settings: 1 μM
# Experimental: (§4) FIGS. 3A-3B. FIG. 3A. The effects of ceramide-1-phosphate on TXB2 synthesis. A549 cells (1×10^5) were treated with D-e-C16 ceramide-1-phosphate (1 μM) solubilized in 2% dodecane/98% ethanol (final concentration in treatments was 0.002% dodecane/0.098% ethanol (EtOH)) for the indicated times. The results are presented as % control of TXB2 controlled for equivalent number of cells by MTT assay. Data are representative of 3 separate determinations on 2 separate occasions. FIG. 3B. The effects of ceramide-1-phosphate on AA release and PGE2 synthesis in L929 fibroblasts. L929 cells (5×10^4) were labeled overnight with 5 μCi/mL [^3H]-arachidonic acid (5 nM). Cells were washed and placed in DMEM supplemented with 2% fetal bovine serum for two hours. Cells were then treated with 2.5 μM D-e-C16 ceramide-1-phosphate (solubilized in 98% ethanol/2% dodecane) for the indicated times. […]
# (§5) Quantification of prostaglandin E2 and thromboxane B2 synthesis: For measurement of PGE2 and TXB2 levels, aliquots of media were taken at indicated time points and assayed according to manufacturer's instructions using the prostaglandin E2 and thromboxane B2 monoclonal EIA Kit from Cayman Chemical. […] Results were controlled for equivalent number of cells quantified by MTT assay.
# [5] = test system: L929 fibroblasts; assay: PGE2 synthesis in L929 fibroblasts; type: cell-based; settings: L929 fibroblasts that do not express COX-2
# Experimental: as §4, §5
# [6] = test system: COX-2; assay: COX-2 expression by western immunoblotting; type: cell-based
# [7] = test system: L929 fibroblasts; assay: AA release in L929 fibroblasts; type: cell-based; settings: 1 μM, after 1 hour
# Experimental: as §4, with “hours.” for “hours. Cells were then treated with 2.5 μM D-e-C16 ceramide-1-phosphate (solubilized in 98% ethanol/2% dodecane) for the indicated times.”
# as §2, with “Cells were washed and incubated in DMEM supplemented with 2% fetal bovine serum for 2 hours.” left out, “For the experiments in FIG. 4, purified SMase D was obtained from Dr. Alfred H. Merrill, Jr., and SMase C (purified from Bacillus cereus) was obtained commercially from Sigma.” left out
# [8] = test system: A549 cells; assay: Quantification of prostaglandin E2 synthesis in A549 cells (EIA); type: cell-based; settings: 2.5 μM, only after 1 hour
# Experimental: as §1
# Quantification of prostaglandin E2 and thromboxane B2 synthesis: For measurement of PGE2 and TXB2 levels, aliquots of media were taken at indicated time points and assayed according to manufacturer's instructions using the prostaglandin E2 and thromboxane B2 monoclonal EIA Kit from Cayman Chemical. Briefly, media containing PGE2 or TXB2 competes with PGE2 or TXB2 acetylcholinesterase conjugate for a limited amount of monoclonal antibody. The antibody-PGE2 or -TXB2 conjugate binds to a goat-anti-mouse antibody previously attached to the 96-well plate. The plate is washed to remove unbound reagents and then the substrate for acetylcholinesterase is provided. […] Results were controlled for equivalent number of cells quantified by MTT assay. […]
# [9] = target: protein phosphatase 2A; assay: Inhibition of protein phosphatase 2A; type: biochemical
# [10] = target: protein phosphatase-1; assay: Inhibition of protein phosphatase-1; type: biochemical
compound,measurement,setting,value
"CCCCCCCCCCCCC/C=C/[C@@H](O)[C@@H](N)COP(=O)(O)O [S-1-P, D-erytho-sphingosine-1-phosphate]",AA release (lipid specificity),[1],Only C-1-P induced significant AA release
di-oleoylglycerol [DAG],AA release (lipid specificity),[1],Only C-1-P induced significant AA release
"CCCCCCCCCCCCC/C=C/[C@@H](O)[C@H](CO)NC(=O)CCCCCCCCCCCCCCC [CER, D-erythro C16 ceramide]",AA release (lipid specificity),[1],small increase
same,"AA release, long term treatment",[1]; 8 hours,no further increase
"CCCCCCCC/C=C\CCCCCCCC(=O)OC[C@H](COP(=O)(O)O)OC(=O)CCCCCCC/C=C\CCCCCCCC [PA, di-oleoyl phosphatidic acid]",AA release (lipid specificity),[1],Only C-1-P induced significant AA release
CNc1ccc2oc(C[C@H]3O[C@@]4(CC[C@H]3C)O[C@H]([C@H](C)C(=O)c3ccc[nH]3)[C@H](C)C[C@H]4C)nc2c1C(=O)O [A23187],maximal increase in C-1-P levels,"[2]; 1 μg/mL, after 10 minutes",approximately 4 fold
same,C-1-P levels,"[2]; 1 μg/mL, within 5 minutes of treatment",significant increase
same,increase of ceramide kinase activity,"[3]; 1 μg/mL, 5 minutes",216%
same,time to increased AA release,[1]; 1 μg/mL,within minutes
IL-1β,increase in C-1-P levels,"[2]; 2.5 ng/mL, after 4 hours",242%
same,increase of ceramide kinase activity,"[3]; 2.5 ng/mL, 3.5 hours",187%
"CCCCCCCCCCCCC/C=C/[C@@H](O)[C@H](COP(=O)(O)O)NC(=O)CCCCCCCCCCCCCCC [C-1-P, D-erythro-C16 ceramide-1-phosphate]",increase of TXB2,[4]; after 2 hours,2.5 fold
same,increase of TXB2,[4]; after 4 hours,11 fold
same,PGE2 synthesis/release,[5],not observed
same,expression of COX-2,[6],no effect
same,concentration as low as which induces a significant increase in AA release,[1],100 nM
same,AA release (lipid specificity),[1],induced significant AA release
same,maximal early increase in AA release,"[1]; 2.5 μM, after 20 minutes",approximately 2 fold
same,AA release,"[1]; 2.5 μM, after 1 hour, following reuptake",sustained increase
same,EC50,"[1]; 8 hours, read-out: EC50 of effect on AA release",0.4 µM
same,AA release over basal release,[7],225%
same,PGE2 synthesis,[8],Increased
same,IC50,[9],0.05 µM
same,IC50,[10],0.05 µM
